Test results published in EP2465840A1, “Terpene ether” (CABB GmbH, priority 2010, dated 2012).
Entries after “also recorded” stand apart in the source; their conditions may differ.

Experiments:
Format in all cases: physicochemical
[1] = Foam height and foam stability of formulation; conditions: Reinigungsformulierung enthaltend Dinatriumlaurylsuccinat (wässrig); for h1: Schaumhöhe 5 Minuten nach dem Mischen; for h1 / h0: Lösung mit 0,5 % WAS; for h0: Schaumhöhe eine Minute nach dem Mischen; for Stabilität: Schaumstabilität (h1/h0)*100
Method: Die Schaumhöhe der Formulierungen wurde nach folgender Methode ermittelt: In einem 400 ml Becher wurden 100 g einer wässrigen Lösung mit 0,5 % WAS hergestellt. Für eine Minute wurde die Lösung bei […] runden […] wurde die […] Minute […]0) und 5 […]. Die Schaumstabilität in % ergibt sich dann über (h1/h0)*100.

[2] = Appearance of cleaning formulation after 24 h
[3] = Visual evaluation of foam (foam appearance, bubble size); set-up: key to Blasengröße nach 1 min. / Blasengröße nach 5 min.: klein (1); mittel (2); mittel-groß (3); groß (4); sehr groß (5); key to Aussehen des Schaums nach 1 min. / Aussehen des Schaums nach 5 min.: verschwindend (1); locker (2); mittelkompakt (3); sehr kompakt (4); conditions: Reinigungsformulierung enthaltend Dinatriumlaurylsuccinat (wässrig)
Method: Die Qualität des Schaums wurde visuell nach der folgenden Methode festgestellt: 100 g der Lösung mit 0,5 % WAS wurden in einen 250 ml Glaszylinder mit Schraubverschluss und einem Innendurchmesser von 35 mm überführt. Der Zylinder wurde 10 mal gedreht und die Blasengröße und die Schaumkompaktheit wurden nach einer Minute nach dem Mischen und nach 5 Minuten ermittelt. Dabei erfolgte die Beurteilung auf der Grundlage der folgenden beschreibenden Parameter:
Aussehen des Schaums: verschwindend (1), locker (2), mittelkompakt (3), sehr kompakt (4)
Blasengröße: klein (1), mittel (2), mittel-groß (3), groß (4), sehr groß (5) Tabelle 4: […]

[4] = Brookfield viscosity (25°C) of cleaning formulation 24 h after addition of terpene ether
Method: Im Rahmen der vorliegenden Erfindung wird die Brookfield-Viskosität einer wässrigen Zusammensetzung vorzugsweise mittels einem RTV Brookfield-Viskosimeter bei 25°C ermittelt, besonders bevorzugt mit einer Spindel # 3 oder # 4.
Die in Tabelle 1 angegebene Reinigungsformulierung wurde untersucht. Tabelle 1: Reinigungsformulierung (WAS 15 %)
Zu dieser Formulierung wurden NP 1 oder NP 27 gegeben. Die gemessenen Brookfield-Viskositätswerte nach 24 Stunden werden in Tabelle 2 und 3 zusammengefasst. Tabelle 2: Brookfield-Viskosität (25°C)
Zu dieser Formulierung wurden NP 1 oder NP 27 sowie danach Natriumchlorid gegeben. Die gemessenen Brookfield-Viskositätswerte nach 24 Stunden werden in den folgenden Tabellen zusammengefasst. Tabelle 13: Brookfield-Viskosität (25°C)

[5] = pH of cleaning formulation after addition of terpene ether
[6] = Reinigungsformulierung enthaltend Coco Glucosid, +0,5 %
[7] = Reinigungsformulierung enthaltend Coco Glucosid, +1 %
[8] = Reinigungsformulierung enthaltend Coco Glucosid, +5 %
[9] = Reinigungsformulierung enthaltend Dinatriumlaurylsuccinat (wässrig), +0,5 %
[10] = Reinigungsformulierung enthaltend Dinatriumlaurylsuccinat (wässrig), +1 %
[11] = Reinigungsformulierung enthaltend Dinatriumlaurylsuccinat (wässrig), +5 %
[12] = Reinigungsformulierung enthaltend Dinatriumlaurylsuccinat (wässrig), +0,5 %, nach 24 Stunden
[13] = Reinigungsformulierung enthaltend Dinatriumlaurylsuccinat (wässrig), +1 %, nach 24 Stunden
[14] = Reinigungsformulierung enthaltend Dinatriumlaurylsuccinat (wässrig), +5 %, nach 24 Stunden
[15] = Reinigungsformulierung enthaltend Natriumlaurylethersulfat, Dinatriumcocoamphodiacetat, 0,5 % NaCl, +0,5 %, nach 24 Stunden
[16] = Reinigungsformulierung enthaltend Natriumlaurylethersulfat, Dinatriumcocoamphodiacetat, 0,5 % NaCl, +0,25 %, nach 24 Stunden
[17] = Reinigungsformulierung enthaltend Natriumlaurylethersulfat, Dinatriumcocoamphodiacetat, 0,5 % NaCl, +1 %, nach 24 Stunden
[18] = Reinigungsformulierung enthaltend Natriumlaurylethersulfat, Dinatriumcocoamphodiacetat, 0,5 % NaCl, +2 %, nach 24 Stunden
[19] = Reinigungsformulierung enthaltend Natriumlaurylethersulfat, Dinatriumcocoamphodiacetat, 1 % NaCl, +0,5 %, nach 24 Stunden
[20] = Reinigungsformulierung enthaltend Natriumlaurylethersulfat, Dinatriumcocoamphodiacetat, 1 % NaCl, +0,25 %, nach 24 Stunden
[21] = Reinigungsformulierung enthaltend Natriumlaurylethersulfat, Dinatriumcocoamphodiacetat, 1 % NaCl, +1 %, nach 24 Stunden
[22] = Reinigungsformulierung enthaltend Natriumlaurylethersulfat, Dinatriumcocoamphodiacetat, 1 % NaCl, +2 %, nach 24 Stunden
[23] = Reinigungsformulierung enthaltend Natriumlaurylethersulfat, Dinatriumcocoamphodiacetat, +0,5 %, nach 24 Stunden
[24] = Reinigungsformulierung enthaltend Natriumlaurylethersulfat, Dinatriumcocoamphodiacetat, +0,25 %, nach 24 Stunden
[25] = Reinigungsformulierung enthaltend Natriumlaurylethersulfat, Dinatriumcocoamphodiacetat, +1 %, nach 24 Stunden
[26] = Reinigungsformulierung enthaltend Natriumlaurylethersulfat, Dinatriumcocoamphodiacetat, +2 %, nach 24 Stunden

## CC1(C)C2CCC1(C)C(OCC1COC(=O)O1)C2 (stereo not drawn) [NP 27]
[1]; 0,5 %
  h1: 210 mm
  h0: 240 mm
  Stabilität: 88%
[1]; 1 %
  h1: 180 mm
  h0: 215 mm
  Stabilität: 84%
[1]; 5 %
  h1: 175 mm
  h0: 210 mm
  Stabilität: 83%
[2]; [6]
  Aussehen nach 24 h: transparent Gel-flüssig
[2]; [7]
  Aussehen nach 24 h: opaleszent Phasenseparation
[2]; [8]
  Aussehen nach 24 h: weiß Phasenseparation
[2]; [9]
  Aussehen nach 24 h: transparent; also recorded: flüssig
[2]; [10]
  Aussehen nach 24 h: transparent and Gel
[2]; [11]
  Aussehen nach 24 h: Weiß and Flüssig
[2]; Reinigungsformulierung enthaltend Natriumlaurylethersulfat, Dinatriumcocoamphodiacetat, 0,5 % NaCl, +0,5 %
  Aussehen nach 24 h: transparent Gel
[2]; Reinigungsformulierung enthaltend Natriumlaurylethersulfat, Dinatriumcocoamphodiacetat, 0,5 % NaCl, +0,25 %
  Aussehen nach 24 h: transparent Gel-flüssig
[2]; Reinigungsformulierung enthaltend Natriumlaurylethersulfat, Dinatriumcocoamphodiacetat, 0,5 % NaCl, +1 %
  Aussehen nach 24 h: transparent Gel
[2]; Reinigungsformulierung enthaltend Natriumlaurylethersulfat, Dinatriumcocoamphodiacetat, 0,5 % NaCl, +2 %
  Aussehen nach 24 h: opaleszent flüssig
[2]; Reinigungsformulierung enthaltend Natriumlaurylethersulfat, Dinatriumcocoamphodiacetat, 1 % NaCl, +0,5 %
  Aussehen nach 24 h: transparent Gel
[2]; Reinigungsformulierung enthaltend Natriumlaurylethersulfat, Dinatriumcocoamphodiacetat, 1 % NaCl, +0,25 %
  Aussehen nach 24 h: transparent Gel
[2]; Reinigungsformulierung enthaltend Natriumlaurylethersulfat, Dinatriumcocoamphodiacetat, 1 % NaCl, +1 %
  Aussehen nach 24 h: transparent Gel
[2]; Reinigungsformulierung enthaltend Natriumlaurylethersulfat, Dinatriumcocoamphodiacetat, 1 % NaCl, +2 %
  Aussehen nach 24 h: weiß flüssig
[2]; Reinigungsformulierung enthaltend Natriumlaurylethersulfat, Dinatriumcocoamphodiacetat, +0,5 %
  Aussehen nach 24 h: transparent Gel-flüssig
[2]; Reinigungsformulierung enthaltend Natriumlaurylethersulfat, Dinatriumcocoamphodiacetat, +0,25 %
  Aussehen nach 24 h: transparent flüssig
[2]; Reinigungsformulierung enthaltend Natriumlaurylethersulfat, Dinatriumcocoamphodiacetat, +1 %
  Aussehen nach 24 h: transparent Gel
[2]; Reinigungsformulierung enthaltend Natriumlaurylethersulfat, Dinatriumcocoamphodiacetat, +2 %
  Aussehen nach 24 h: opaleszent flüssig
[3]; +0,5 %
  Aussehen des Schaums nach 1 min.: 2
  Aussehen des Schaums nach 5 min.: 1
  Blasengröße nach 1 min.: 4
  Blasengröße nach 5 min.: 5
[3]; +1 %
  Aussehen des Schaums nach 1 min.: 3
  Aussehen des Schaums nach 5 min.: 1
  Blasengröße nach 1 min.: 3
  Blasengröße nach 5 min.: 5
[3]; +5 %
  Aussehen des Schaums nach 1 min.: 3
  Aussehen des Schaums nach 5 min.: 1
  Blasengröße nach 1 min.: 4
  Blasengröße nach 5 min.: 5
[4]; [6]
  BF-Viskosität (2,5 rpm): 16400 mPas
  BF-Viskosität (5 rpm): 15800 mPas
[4]; [7]
  BF-Viskosität (2,5 rpm): 1000 mPas
  BF-Viskosität (5 rpm): 900 mPas
[4]; [8]
  BF-Viskosität (2,5 rpm): 80 mPas
  BF-Viskosität (5 rpm): 60 mPas
[4]; [12]
  BF-Viskosität (2,5 rpm): 6800 mPas
  BF-Viskosität (5 rpm): 6800 mPas
[4]; [13]
  BF-Viskosität (2,5 rpm): 30400 mPas
  BF-Viskosität (5 rpm): 27800 mPas
[4]; [14]
  BF-Viskosität (2,5 rpm): 60 mPas
  BF-Viskosität (5 rpm): 40 mPas
[4]; [15]
  BF-Viskosität (2,5 rpm): 35200 mPas
  BF-Viskosität (5 rpm): 31000 mPas
[4]; [16]
  BF-Viskosität (2,5 rpm): 19600 mPas
  BF-Viskosität (5 rpm): 19000 mPas
[4]; [17]
  BF-Viskosität (2,5 rpm): 40800 mPas
  BF-Viskosität (5 rpm): 36800 mPas
[4]; [18]
  BF-Viskosität (2,5 rpm): 7400 mPas
  BF-Viskosität (5 rpm): 7200 mPas
[4]; [19]
  BF-Viskosität (2,5 rpm): 46400 mPas
  BF-Viskosität (5 rpm): 40400 mPas
[4]; [20]
  BF-Viskosität (2,5 rpm): 33200 mPas
  BF-Viskosität (5 rpm): 29000 mPas
[4]; [21]
  BF-Viskosität (2,5 rpm): 43200 mPas
  BF-Viskosität (5 rpm): 38800 mPas
[4]; [22]
  BF-Viskosität (2,5 rpm): 4000 mPas
  BF-Viskosität (5 rpm): 3800 mPas
[4]; [23]
  BF-Viskosität (2,5 rpm): 15600 mPas
  BF-Viskosität (5 rpm): 15000 mPas
[4]; [24]
  BF-Viskosität (2,5 rpm): 9200 mPas
  BF-Viskosität (5 rpm): 8700 mPas
[4]; [25]
  BF-Viskosität (2,5 rpm): 27600 mPas
  BF-Viskosität (5 rpm): 25600 mPas
[4]; [26]
  BF-Viskosität (2,5 rpm): 12800 mPas
  BF-Viskosität (5 rpm): 12400 mPas
[5]; [6]
  pH: 6
[5]; [7]
  pH: 6
[5]; [8]
  pH: 6,1
[5]; [9]
  pH: 6,3
[5]; [10]
  pH: 6,35
[5]; [11]
  pH: 6,4
